Results published in US20240366639A1, “HETEROCYCLIC GLP-1 AGONISTS” (GASHERBRUM BIO, INC., priority 2021, published 2024).
Like-named read-outs stand apart in the source and are kept apart here.

Target: T1, GLP-1 Receptor (GLP1R) (Homo sapiens, UniProt P43220)
T1 construct: host or cells: HEK293/GLP1R/CRE-LUC
Test: GLP-1R agonist cAMP stimulation assay (Method 3)
Assay type: cell-based
Conditions: HEK293/GLP1R/CRE-LUC cells (HDB), Method 3, 30 min incubation
Protocol: Method 3: Activation of GLP-1 receptor is known to stimulate cyclic AMP (cAMP) production in cells which indicates primary coupling to the Gαs subunit of the G protein heterotrimeric complex.
To optimize functional activity directed toward Gαs coupling, a HEK293/CRE-Luc cell line developed by HDB stably expressing the GLP-1 Receptor was used, 200× concentration of compound working solutions were prepared (Agilent Technologies Bravo) with 1/2 log serial dilution in 384-well Echo LDV plate (Labcyte, Cat #LP-0200). 50 nL/well 200× concentration of compound working solutions were moved to 384-well white low volume plate (Greiner, Cat #784075) using Labcyte ECHO550. 1×10^5 cells/mL HEK293/GLP1R/CRE-LUC(HD Biosciences) cell suspensions prepared with assay buffer [DPBS containing 0.5 mM IBMX (Sigma, Cat #15879) and 0.1% BSA (GENVIEW, Cat #FA016-100 g)], 10 μL cell suspensions were added to each well of previous generated assay plate which already contains 50 nL compound at 200× concentration using ThermoFisher Multidrop Combi (1000 cells/well). Seal the plate and incubate at 37° C. with 5% CO2 for 30 min.
After incubation the cAMP assay signal was generated using cAMP dynamic 2 Kit (Cisbio). 5 μL cAMP-d2 working solution was added to each well, followed with 5 μL Anti-cAMP antibody-cryptate working solution added to each well using ThermoFisher Multidrop Combi. Incubate at room temperature for 1 hour protected from light. Read the fluorescence at 665 nm and 615 nm with Reader PerkinElmer EnVision.

[1] = read-out: GLP1R cAMP Stimulation DR: EC50 (nM) [Species: Human, Assay Cell Line: HDB]
[2] = read-out: GLP1R cAMP Stimulation DR: pEC50 (M) [Species: Human, Assay Cell Line: HDB] (converted)

T1 sequence (P43220 24-463): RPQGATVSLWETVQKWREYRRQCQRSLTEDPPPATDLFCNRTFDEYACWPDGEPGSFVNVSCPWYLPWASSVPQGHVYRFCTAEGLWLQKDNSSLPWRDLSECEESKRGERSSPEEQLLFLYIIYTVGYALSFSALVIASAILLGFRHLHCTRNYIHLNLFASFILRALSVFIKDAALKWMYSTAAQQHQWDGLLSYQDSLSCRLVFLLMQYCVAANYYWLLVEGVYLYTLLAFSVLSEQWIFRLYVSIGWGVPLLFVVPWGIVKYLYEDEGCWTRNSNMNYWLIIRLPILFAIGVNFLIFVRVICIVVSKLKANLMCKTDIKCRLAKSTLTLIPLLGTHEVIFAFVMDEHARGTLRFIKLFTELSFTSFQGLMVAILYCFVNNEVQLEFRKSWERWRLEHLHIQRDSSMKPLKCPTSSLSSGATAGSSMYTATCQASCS

SMILES | EC50 [1] [nM] | EC50 [2] [nM]
Cc1cc(-n2nc3c(c2-n2ccn(-c4ccc(P(C)(C)=O)cc4)c2=O)[C@H](C)N(C(=O)c2cc4cc(C5CCOCC5)ccc4n2[C@@]2(c4noc(=O)[nH]4)C[C@@H]2C)CC3)cc(C)c1F [Compound 101a, 3-((1S,2S)-1-(2-((S)-3-(3-(4-(Dimethylphosphoryl)phenyl)-2-oxo-2,3-dihydro-1H-imidazol-1-yl)-2-(4-fluoro-3,5-dimethylphenyl)-4-methyl-4,5,6,7-tetrahydro-2H-pyrazolo[4,3-c]pyridine-5-carbonyl)-5-(tetrahydro-2H-pyran-4-yl)-1H-indol-1-yl)-2-methylcyclopropyl)-1,2,4-oxadiazol-5(4H)-one] | 0.1 to 0.2 | 0.1 to 1
Cc1cc(-n2nc3c(c2-n2ccn(-c4ccc(P(C)(C)=O)nc4)c2=O)[C@H](C)N(C(=O)c2cc4cc(C5CCOCC5)ccc4n2[C@@]2(c4noc(=O)[nH]4)C[C@@H]2C)CC3)cc(C)c1F [Compound 105a, 3-((1S,2S)-1-(2-((S)-3-(3-(6-(dimethylphosphoryl)pyridin-3-yl)-2-oxo-2,3-dihydro-1H-imidazol-1-yl)-2-(4-fluoro-3,5-dimethylphenyl)-4-methyl-4,5,6,7-tetrahydro-2H-pyrazolo[4,3-c]pyridine-5-carbonyl)-5-(tetrahydro-2H-pyran-4-yl)-1H-indol-1-yl)-2-methylcyclopropyl)-1,2,4-oxadiazol-5(4H)-one] | 0.1 to 0.2 | 0.1 to 1
CNc1cc(-n2ccn(-c3c4c(nn3-c3cc(C)c(F)c(C)c3)CCN(C(=O)c3cc5cc(C6CCOCC6)ccc5n3[C@@]3(c5noc(=O)[nH]5)C[C@@H]3C)[C@H]4C)c2=O)ccc1P(C)(C)=O [Compound 106a, 3-((1S,2S)-1-(2-((S)-3-(3-(4-(dimethylphosphoryl)-3-(methylamino)phenyl)-2-oxo-2,3-dihydro-1H-imidazol-1-yl)-2-(4-fluoro-3,5-dimethylphenyl)-4-methyl-4,5,6,7-tetrahydro-2H-pyrazolo[4,3-c]pyridine-5-carbonyl)-5-(tetrahydro-2H-pyran-4-yl)-1H-indol-1-yl)-2-methylcyclopropyl)-1,2,4-oxadiazol-5(4H)-one] | < 0.1 | ≤ 0.1
Cc1cc(-n2nc3c(c2-n2ccn(-c4cccc(P(C)(C)=O)c4O)c2=O)[C@H](C)N(C(=O)c2cc4cc(C5CCOCC5)ccc4n2[C@@]2(c4noc(=O)[nH]4)C[C@@H]2C)CC3)cc(C)c1F [Compound 107a, 3-((1S,2S)-1-(2-((S)-3-(3-(3-(dimethylphosphoryl)-2-hydroxyphenyl)-2-oxo-2,3-dihydro-1H-imidazol-1-yl)-2-(4-fluoro-3,5-dimethylphenyl)-4-methyl-4,5,6,7-tetrahydro-2H-pyrazolo[4,3-c]pyridine-5-carbonyl)-5-(tetrahydro-2H-pyran-4-yl)-1H-indol-1-yl)-2-methylcyclopropyl)-1,2,4-oxadiazol-5(4H)-one] | 0.2 to 0.5 | 0.1 to 1
Cc1cc(-n2nc3c(c2-n2ccn(-c4ccc(P(C)(C)=O)c(F)c4)c2=O)[C@H](C)N(C(=O)c2cc4cc(C5CCOCC5)ccc4n2[C@@]2(c4noc(=O)[nH]4)C[C@@H]2C)CC3)cc(C)c1F [Compound 108a, 3-((1S,2S)-1-(2-((S)-3-(3-(4-(dimethylphosphoryl)-3-fluorophenyl)-2-oxo-2,3-dihydro-1H-imidazol-1-yl)-2-(4-fluoro-3,5-dimethylphenyl)-4-methyl-4,5,6,7-tetrahydro-2H-pyrazolo[4,3-c]pyridine-5-carbonyl)-5-(tetrahydro-2H-pyran-4-yl)-1H-indol-1-yl)-2-methylcyclopropyl)-1,2,4-oxadiazol-5(4H)-one] | 0.2 to 0.5 | 0.1 to 1
Cc1cc(-n2nc3c(c2-n2ccn(-c4cccc(P(C)(C)=O)c4)c2=O)[C@H](C)N(C(=O)c2cc4cc(C5CCOCC5)ccc4n2[C@@]2(c4noc(=O)[nH]4)C[C@@H]2C)CC3)cc(C)c1F [Compound 109a, 3-((1S,2S)-1-(2-((S)-3-(3-(3-(dimethylphosphoryl)phenyl)-2-oxo-2,3-dihydro-1H-imidazol-1-yl)-2-(4-fluoro-3,5-dimethylphenyl)-4-methyl-4,5,6,7-tetrahydro-2H-pyrazolo[4,3-c]pyridine-5-carbonyl)-5-(tetrahydro-2H-pyran-4-yl)-1H-indol-1-yl)-2-methylcyclopropyl)-1,2,4-oxadiazol-5(4H)-one] | 0.1 to 0.2 | 0.1 to 1
Cc1cc(-n2nc3c(c2-n2ccn(-c4cc(P(C)(C)=O)c5[nH]cnc5c4)c2=O)[C@H](C)N(C(=O)c2cc4cc(C5CCOCC5)ccc4n2[C@@]2(c4noc(=O)[nH]4)C[C@@H]2C)CC3)cc(C)c1F [Compound 110a, 3-((1S,2S)-1-(2-((S)-3-(3-(7-(dimethylphosphoryl)-1H-benzo[d]imidazol-5-yl)-2-oxo-2,3-dihydro-1H-imidazol-1-yl)-2-(4-fluoro-3,5-dimethylphenyl)-4-methyl-4,5,6,7-tetrahydro-2H-pyrazolo[4,3-c]pyridine-5-carbonyl)-5-(tetrahydro-2H-pyran-4-yl)-1H-indol-1-yl)-2-methylcyclopropyl)-1,2,4-oxadiazol-5(4H)-one] | 0.5 to 5 | 0.1 to 1
Cc1cc(-n2nc3c(c2-n2ccn(-c4ccc(P(C)(C)=O)c(N)c4)c2=O)[C@H](C)N(C(=O)c2cc4cc(C5CCOCC5)ccc4n2[C@@]2(c4noc(=O)[nH]4)C[C@@H]2C)CC3)cc(C)c1F [Compound 111a, 3-((1S,2S)-1-(2-((S)-3-(3-(3-amino-4-(dimethylphosphoryl)phenyl)-2-oxo-2,3-dihydro-1H-imidazol-1-yl)-2-(4-fluoro-3,5-dimethylphenyl)-4-methyl-4,5,6,7-tetrahydro-2H-pyrazolo[4,3-c]pyridine-5-carbonyl)-5-(tetrahydro-2H-pyran-4-yl)-1H-indol-1-yl)-2-methylcyclopropyl)-1,2,4-oxadiazol-5(4H)-one] | < 0.1 | ≤ 0.1
Cc1cc(-n2nc3c(c2-n2ccn(-c4cc(P(C)(C)=O)c5c(cnn5C)c4)c2=O)[C@H](C)N(C(=O)c2cc4cc(C5CCOCC5)ccc4n2[C@@]2(c4noc(=O)[nH]4)C[C@@H]2C)CC3)cc(C)c1F [Compound 112a, 3-((1S,2S)-1-(2-((S)-3-(3-(7-(dimethylphosphoryl)-1-methyl-1H-indazol-5-yl)-2-oxo-2,3-dihydro-1H-imidazol-1-yl)-2-(4-fluoro-3,5-dimethylphenyl)-4-methyl-4,5,6,7-tetrahydro-2H-pyrazolo[4,3-c]pyridine-5-carbonyl)-5-(tetrahydro-2H-pyran-4-yl)-1H-indol-1-yl)-2-methylcyclopropyl)-1,2,4-oxadiazol-5(4H)-one] | 0.5 to 5 | 0.1 to 1
Cc1cc(-n2nc3c(c2-n2ccn(-c4cccc(P(C)(C)=O)n4)c2=O)[C@H](C)N(C(=O)c2cc4cc(C5CCOCC5)ccc4n2[C@@]2(c4noc(=O)[nH]4)C[C@@H]2C)CC3)cc(C)c1F [Compound 113a, 3-((1S,2S)-1-(2-((S)-3-(3-(6-(dimethylphosphoryl)pyridin-2-yl)-2-oxo-2,3-dihydro-1H-imidazol-1-yl)-2-(4-fluoro-3,5-dimethylphenyl)-4-methyl-4,5,6,7-tetrahydro-2H-pyrazolo[4,3-c]pyridine-5-carbonyl)-5-(tetrahydro-2H-pyran-4-yl)-1H-indol-1-yl)-2-methylcyclopropyl)-1,2,4-oxadiazol-5(4H)-one] | 0.2 to 0.5 | 0.1 to 1
CCP(=O)(CC)c1ccc(-n2ccn(-c3c4c(nn3-c3cc(C)c(F)c(C)c3)CCN(C(=O)c3cc5cc(C6CCOCC6)ccc5n3[C@@]3(c5noc(=O)[nH]5)C[C@@H]3C)[C@H]4C)c2=O)cc1N1CCOCC1 [Compound 114a, 3-((1S,2S)-1-(2-((S)-3-(3-(4-(diethylphosphoryl)-3-morpholinophenyl)-2-oxo-2,3-dihydro-1H-imidazol-1-yl)-2-(4-fluoro-3,5-dimethylphenyl)-4-methyl-4,5,6,7-tetrahydro-2H-pyrazolo[4,3-c]pyridine-5-carbonyl)-5-(tetrahydro-2H-pyran-4-yl)-1H-indol-1-yl)-2-methylcyclopropyl)-1,2,4-oxadiazol-5(4H)-one] | 0.2 to 0.5 | 0.1 to 1
CCP(=O)(CC)c1ccc(-n2ccn(-c3c4c(nn3-c3cc(C)c(F)c(C)c3)CCN(C(=O)c3cc5cc(C6CCOCC6)ccc5n3[C@@]3(c5noc(=O)[nH]5)C[C@@H]3C)[C@H]4C)c2=O)cc1NC(=O)C1CC1 [Compound 115a, N-(2-(diethylphosphoryl)-5-(3-((S)-2-(4-fluoro-3,5-dimethylphenyl)-4-methyl-5-(1-((1S,2S)-2-methyl-1-(5-oxo-4,5-dihydro-1,2,4-oxadiazol-3-yl)cyclopropyl)-5-(tetrahydro-2H-pyran-4-yl)-1H-indole-2-carbonyl)-4,5,6,7-tetrahydro-2H-pyrazolo[4,3-c]pyridin-3-yl)-2-oxo-2,3-dihydro-1H-imidazol-1-yl)phenyl)cyclopropanecarboxamide] | 0.2 to 0.5 | 0.1 to 1
